Experimental data published in ChEMBL document CHEMBL3232829, “Synthesis and multitarget biological profiling of a novel family of rhein derivatives as disease-modifying anti-Alzheimer agents” (J Med Chem, 2014).
pIC50: −log10 of the molar value. The source made the active and inactive calls. No cut-off for these calls is given here.

Molecular target: Acetylcholinesterase (Homo sapiens, UniProt P22303)
Sequence (P22303 whole entry): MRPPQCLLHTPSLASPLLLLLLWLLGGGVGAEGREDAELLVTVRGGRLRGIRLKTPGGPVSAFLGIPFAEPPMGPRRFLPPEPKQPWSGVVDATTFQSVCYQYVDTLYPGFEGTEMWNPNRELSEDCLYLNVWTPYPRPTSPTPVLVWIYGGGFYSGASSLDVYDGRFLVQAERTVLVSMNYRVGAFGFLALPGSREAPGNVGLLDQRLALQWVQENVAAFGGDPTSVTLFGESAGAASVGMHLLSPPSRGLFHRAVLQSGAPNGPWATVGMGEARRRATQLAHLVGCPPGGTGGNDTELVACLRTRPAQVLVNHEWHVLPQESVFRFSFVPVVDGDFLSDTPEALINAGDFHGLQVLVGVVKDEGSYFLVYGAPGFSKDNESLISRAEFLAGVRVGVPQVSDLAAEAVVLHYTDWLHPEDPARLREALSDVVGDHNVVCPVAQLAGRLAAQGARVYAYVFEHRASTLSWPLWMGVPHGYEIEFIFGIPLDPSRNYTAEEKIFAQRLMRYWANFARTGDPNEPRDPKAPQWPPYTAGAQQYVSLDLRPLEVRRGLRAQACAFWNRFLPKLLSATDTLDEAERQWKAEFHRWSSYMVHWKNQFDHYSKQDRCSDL
Conditions: not given
Work on CC1=CC2Cc3nc4cc(Cl)ccc4c(NCCCCCNC(=O)c4cc(O)c5c(c4)C(=O)c4cccc(O)c4C5=O)c3C(C1)C2.Cl (racemic) yielded a pIC50 of 8.97. For CC1=CC2Cc3nc4cc(Cl)ccc4c(NCCCCCCNC(=O)c4cc(O)c5c(c4)C(=O)c4cccc(O)c4C5=O)c3C(C1)C2 (racemic), the pIC50 was 8.82. Compound CC1=CC2Cc3nc4cc(Cl)ccc4c(NCCCCCCCNC(=O)c4cc(O)c5c(c4)C(=O)c4cccc(O)c4C5=O)c3C(C1)C2.Cl (racemic) has a pIC50 of 8.50.

Molecular target: Cholinesterase (Homo sapiens, UniProt P06276)
Sequence (P06276 whole entry): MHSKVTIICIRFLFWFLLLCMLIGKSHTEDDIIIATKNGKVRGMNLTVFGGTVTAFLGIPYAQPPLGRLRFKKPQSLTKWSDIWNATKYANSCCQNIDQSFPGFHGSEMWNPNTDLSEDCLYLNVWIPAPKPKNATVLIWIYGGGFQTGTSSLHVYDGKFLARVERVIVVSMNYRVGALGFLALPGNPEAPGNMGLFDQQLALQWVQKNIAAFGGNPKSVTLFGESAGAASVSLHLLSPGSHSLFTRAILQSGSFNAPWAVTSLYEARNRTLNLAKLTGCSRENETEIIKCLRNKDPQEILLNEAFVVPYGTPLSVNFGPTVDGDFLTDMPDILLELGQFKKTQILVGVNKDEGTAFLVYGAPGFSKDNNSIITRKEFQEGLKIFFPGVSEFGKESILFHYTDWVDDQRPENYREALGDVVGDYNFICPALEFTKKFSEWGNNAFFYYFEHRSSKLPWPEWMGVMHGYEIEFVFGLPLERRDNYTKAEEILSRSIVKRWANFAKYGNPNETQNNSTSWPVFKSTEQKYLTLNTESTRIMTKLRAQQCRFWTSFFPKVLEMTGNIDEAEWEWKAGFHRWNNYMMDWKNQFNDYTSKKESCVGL
Assay: Inhibition of human serum BChE using butyrylthiocholine iodide as substrate preincubated for 20 mins by Ellman's method
Conditions: not given
CC1=CC2Cc3nc4cc(Cl)ccc4c(NCCCCCNC(=O)c4cc(O)c5c(c4)C(=O)c4cccc(O)c4C5=O)c3C(C1)C2.Cl (racemic) showed a pIC50 of 6.02. Compound CC1=CC2Cc3nc4cc(Cl)ccc4c(NCCCCCCNC(=O)c4cc(O)c5c(c4)C(=O)c4cccc(O)c4C5=O)c3C(C1)C2 (racemic) has a pIC50 of 5.97. Work on CC1=CC2Cc3nc4cc(Cl)ccc4c(NCCCCCCCNC(=O)c4cc(O)c5c(c4)C(=O)c4cccc(O)c4C5=O)c3C(C1)C2.Cl (racemic) yielded a pIC50 of 5.84.

Molecular target: Beta-secretase 1 (Homo sapiens, UniProt P56817)
Sequence (P56817 whole entry): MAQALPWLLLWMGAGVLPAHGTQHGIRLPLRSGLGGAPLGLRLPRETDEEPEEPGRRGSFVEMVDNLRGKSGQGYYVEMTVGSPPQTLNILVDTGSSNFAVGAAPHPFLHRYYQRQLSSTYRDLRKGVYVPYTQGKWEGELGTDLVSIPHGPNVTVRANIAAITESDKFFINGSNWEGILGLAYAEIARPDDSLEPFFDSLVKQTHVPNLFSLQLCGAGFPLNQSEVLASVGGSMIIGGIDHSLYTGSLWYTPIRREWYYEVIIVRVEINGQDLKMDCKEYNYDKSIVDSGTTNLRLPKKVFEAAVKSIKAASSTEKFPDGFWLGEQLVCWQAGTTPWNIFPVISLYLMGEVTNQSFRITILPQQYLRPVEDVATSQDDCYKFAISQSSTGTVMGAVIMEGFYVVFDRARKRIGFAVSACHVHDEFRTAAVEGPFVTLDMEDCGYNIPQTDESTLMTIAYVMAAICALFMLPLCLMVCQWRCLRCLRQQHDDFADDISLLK
Assay: Inhibition of human recombinant BACE1 using methoxycoumarin-Ser-Glu-Val-Asn-Leu-Asp-Ala-Glu-Phe-Lys-dinitrophenyl as substrate at 1 uM preincubated for 1 hr by FRET assay
Conditions: not given
With CC1=CC2Cc3nc4cc(Cl)ccc4c(NCCCCCNC(=O)c4cc(O)c5c(c4)C(=O)c4cccc(O)c4C5=O)c3C(C1)C2.Cl (racemic) the inhibition was “inactive”. In the case of CC1=CC2Cc3nc4cc(Cl)ccc4c(NCCCCCCNC(=O)c4cc(O)c5c(c4)C(=O)c4cccc(O)c4C5=O)c3C(C1)C2 (racemic), the inhibition was “inactive”. With CC1=CC2Cc3nc4cc(Cl)ccc4c(NCCCCCCCNC(=O)c4cc(O)c5c(c4)C(=O)c4cccc(O)c4C5=O)c3C(C1)C2.Cl (racemic) the inhibition was “inactive”.

Molecular target: Microtubule-associated protein tau (Homo sapiens) (UniProt P10636)
Sequence (P10636 whole entry): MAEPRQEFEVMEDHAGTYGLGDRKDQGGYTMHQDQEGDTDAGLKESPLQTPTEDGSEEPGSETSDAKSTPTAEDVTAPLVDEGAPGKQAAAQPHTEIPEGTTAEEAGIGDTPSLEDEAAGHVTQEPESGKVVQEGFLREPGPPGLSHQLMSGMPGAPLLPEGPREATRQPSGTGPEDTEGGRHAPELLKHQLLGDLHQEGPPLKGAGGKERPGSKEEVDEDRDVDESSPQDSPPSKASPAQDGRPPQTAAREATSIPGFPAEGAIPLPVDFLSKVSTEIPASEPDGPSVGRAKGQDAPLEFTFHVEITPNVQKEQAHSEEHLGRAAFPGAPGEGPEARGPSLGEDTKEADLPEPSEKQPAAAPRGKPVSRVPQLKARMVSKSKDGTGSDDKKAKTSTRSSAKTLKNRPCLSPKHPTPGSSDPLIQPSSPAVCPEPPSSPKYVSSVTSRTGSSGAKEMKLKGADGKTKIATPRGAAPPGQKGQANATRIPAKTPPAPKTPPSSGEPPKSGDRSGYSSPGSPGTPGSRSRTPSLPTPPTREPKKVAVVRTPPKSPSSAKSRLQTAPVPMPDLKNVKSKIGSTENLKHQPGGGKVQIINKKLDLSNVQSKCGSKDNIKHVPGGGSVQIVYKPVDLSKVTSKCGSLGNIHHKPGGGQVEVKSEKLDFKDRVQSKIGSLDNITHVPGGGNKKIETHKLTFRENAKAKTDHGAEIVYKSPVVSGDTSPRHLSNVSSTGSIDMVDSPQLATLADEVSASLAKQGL
Assay: Inhibition of aggregation of tau protein (unknown origin) expressed in Escherichia coli BL21 (DE3) assessed as amyloid fibril formation at 10 uM after 24 hrs by thioflavin S fluorescence method
Conditions: not given
Compound CC1=CC2Cc3nc4cc(Cl)ccc4c(NCCCCCNC(=O)c4cc(O)c5c(c4)C(=O)c4cccc(O)c4C5=O)c3C(C1)C2.Cl (racemic) has an inhibition of 43.7%. For CC1=CC2Cc3nc4cc(Cl)ccc4c(NCCCCCCNC(=O)c4cc(O)c5c(c4)C(=O)c4cccc(O)c4C5=O)c3C(C1)C2 (racemic), the inhibition was 30.9%. Compound CC1=CC2Cc3nc4cc(Cl)ccc4c(NCCCCCCCNC(=O)c4cc(O)c5c(c4)C(=O)c4cccc(O)c4C5=O)c3C(C1)C2.Cl (racemic) has an inhibition of 52%.

Molecular target: Amyloid-beta precursor protein (Homo sapiens) (UniProt P05067)
Sequence (P05067 whole entry): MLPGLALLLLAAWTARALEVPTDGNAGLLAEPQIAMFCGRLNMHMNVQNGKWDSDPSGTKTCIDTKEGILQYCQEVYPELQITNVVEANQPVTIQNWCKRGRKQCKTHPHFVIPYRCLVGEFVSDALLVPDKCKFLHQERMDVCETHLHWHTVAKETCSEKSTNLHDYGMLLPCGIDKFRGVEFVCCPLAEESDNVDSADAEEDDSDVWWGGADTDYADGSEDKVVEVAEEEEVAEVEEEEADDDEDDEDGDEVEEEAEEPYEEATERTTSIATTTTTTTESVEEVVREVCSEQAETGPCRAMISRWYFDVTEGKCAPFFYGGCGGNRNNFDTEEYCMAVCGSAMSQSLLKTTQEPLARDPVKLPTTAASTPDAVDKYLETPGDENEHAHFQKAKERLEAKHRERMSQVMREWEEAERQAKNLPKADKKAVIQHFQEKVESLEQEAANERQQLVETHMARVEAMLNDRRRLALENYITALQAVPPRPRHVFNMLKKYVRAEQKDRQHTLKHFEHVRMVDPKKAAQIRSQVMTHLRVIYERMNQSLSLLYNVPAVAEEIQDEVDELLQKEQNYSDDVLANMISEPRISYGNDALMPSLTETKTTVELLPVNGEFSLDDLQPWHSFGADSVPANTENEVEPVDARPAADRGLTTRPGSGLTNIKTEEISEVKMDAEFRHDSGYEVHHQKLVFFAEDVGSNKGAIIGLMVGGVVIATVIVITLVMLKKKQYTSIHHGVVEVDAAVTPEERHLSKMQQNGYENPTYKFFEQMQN
Assay: Inhibition of aggregation of amyloid beta-42 (unknown origin) expressed in Escherichia coli BL21 (DE3) assessed as amyloid fibril formation at 10 uM after 24 hrs by thioflavin S fluorescence method
Conditions: not given
For CC1=CC2Cc3nc4cc(Cl)ccc4c(NCCCCCNC(=O)c4cc(O)c5c(c4)C(=O)c4cccc(O)c4C5=O)c3C(C1)C2.Cl (racemic), the inhibition was 68%. Work on CC1=CC2Cc3nc4cc(Cl)ccc4c(NCCCCCCNC(=O)c4cc(O)c5c(c4)C(=O)c4cccc(O)c4C5=O)c3C(C1)C2 (racemic) yielded an inhibition of 68.4%. Work on CC1=CC2Cc3nc4cc(Cl)ccc4c(NCCCCCCCNC(=O)c4cc(O)c5c(c4)C(=O)c4cccc(O)c4C5=O)c3C(C1)C2.Cl (racemic) yielded an inhibition of 63.2%.

System: not listed separately
Assay: Permeability of the compound by PAMPA assay
Type: physicochemical
Conditions: read-out: permeability
In the case of CC1=CC2Cc3nc4cc(Cl)ccc4c(NCCCCCNC(=O)c4cc(O)c5c(c4)C(=O)c4cccc(O)c4C5=O)c3C(C1)C2.Cl (racemic), the Papp was 20 ×10⁻⁶ cm/s. With CC1=CC2Cc3nc4cc(Cl)ccc4c(NCCCCCCCNC(=O)c4cc(O)c5c(c4)C(=O)c4cccc(O)c4C5=O)c3C(C1)C2.Cl (racemic) the Papp was 27.5 ×10⁻⁶ cm/s.

Molecular target: Amyloid-beta precursor protein (Homo sapiens) (UniProt P05067)
Assay: Inhibition of amyloid beta-42 (unknown origin) aggregation assessed as amyloid fibril formation at 10 uM after 24 hrs by thioflavin T fluorescence method
Conditions: not given
With CC1=CC2Cc3nc4cc(Cl)ccc4c(NCCCCCNC(=O)c4cc(O)c5c(c4)C(=O)c4cccc(O)c4C5=O)c3C(C1)C2.Cl (racemic) the inhibition was 38.7%. Compound CC1=CC2Cc3nc4cc(Cl)ccc4c(NCCCCCCNC(=O)c4cc(O)c5c(c4)C(=O)c4cccc(O)c4C5=O)c3C(C1)C2 (racemic) has an inhibition of 40.8%. CC1=CC2Cc3nc4cc(Cl)ccc4c(NCCCCCCCNC(=O)c4cc(O)c5c(c4)C(=O)c4cccc(O)c4C5=O)c3C(C1)C2.Cl (racemic) gave an inhibition of 40.6%.
